Laboratory results reported in patent publication US9598463B2, “Mucin hypersecretion inhibitors and methods of use” (BIOMARCK PHARMACEUTICALS, LTD., priority 2005, dated 2017).
Marks after values point to notes of the source that are not given here. Where a SMILES comes first, the peptide text is derived from it. The star is where a group is joined. Myristoyl = CCCCCCCCCCCCCC(=O)*

Legend:
[1] = system: nasal mucus secretion; assay: Mucus secretion in upper respiratory tract of primates (nasal lavage, ELISA); assay type: in vivo; conditions: rhesus monkeys; 2.0 mL of 140 μM solution in right nostril; nasal lavage 1 hour after treatment
Description: The purpose of the experiment was to determine the ability of MANS peptide to inhibit mucus secretion in the upper respiratory tract of healthy adult rhesus monkeys. The test used is a standard method for evaluation of nasal secretory activity, and non-human primates typically provide a good correlation to activity in man.
A total of 17 healthy young adult male rhesus monkeys without any prior history of rhinitis were used for the experiment. None of the monkeys had rhinitis before or after the study. The nasal mucus secretion of each monkey was measured in its left nostril prior to any treatment. This value is considered 100% mucus secretion. The monkeys were then randomly divided into the following 4 groups: • Group 1: Normal saline, control (n=3); • Group 2: Sodium acetate, solvent control (n=4); • Group 3: RNS peptide, negative control (n=5); and • Group 4: MANS peptide, test peptide (n=5).
Saline was placed in the left nostril of all 17 animals prior to any treatment. The right nostrils were treated with 2.0 mL of either saline, sodium acetate, RNS peptide or the MANS peptide. Thus, each animal had its own internal control. Nasal lavage was performed on both nostrils of each animal 1 hour after the treatment with the test articles. All lavages were immediately frozen at −80° C. and analyzed for mucus content by ELISA. […]

[2] = system: methacholine-induced mucin hypersecretion; assay: Methacholine-induced mucin hypersecretion in ovalbumin-sensitized mouse model of asthma, BAL mucin ELISA (BP2 mice); assay type: in vivo
Description: (§1) Experiments were designed to test whether or not the MANS peptide and other test peptides related thereto inhibit hypersecretion of mucin in murine airway in vivo. The ovalbumin-sensitized mouse model of allergic inflammation and asthma used in these studies was as described by Singer et al. (2004), supra. As a negative control, a control peptide containing an N-terminal myristoyl group and the same amino acids as MANS peptide but arranged in random order (i.e., the random N-terminal sequence, RNS, myristoyl-peptide 232) was tested alongside the proposed active peptides. BP2 mice, aged 6-8 wks, were immunized subcutaneously twice at weekly intervals with 1 μg of ovalbumin. After 14 days of sensitization, the animals were exposed to aerosolized ovalbumin, which causes a pronounced goblet cell hyperplasia after 72 hours. At the 72 hr time point, the secretagogue, methacholine ([…]) was delivered using a Buxco system nebulizer providing a fine aerosol for 90 seconds. Fifteen min prior to the secretagogue challenge, 50 μL of the test peptide, at 3 different concentrations (10 μM, 100 μM, or 140 μM), was administered by intratracheal route. The RNS peptide was tested at the highest dose level only (50 μL of 140 μM solution). […] Each experiment was carried out in 6 mice per point, and each set of experiments was repeated 3 times. To test strain-to-strain variations, the above experiment was repeated in Balb/C mice under similar protocol. Both stimulated and unstimulated mucin secretion, in mice treated with […] sodium acetate (data not shown), were identical to saline control. Following the methacholine challenge, the animals were sacrificed and bronchoalveolar lavage (BAL) performed on 6 animals per group for analysis of secreted mucin.
(§2) Mice were sacrificed by cervical dislocation, followed by rapid exposure of the trachea and insertion of a cannula through a small incision. Bronchoalveolar lavage (BAL) fluid was collected with 0.5 ml followed by 3×1 ml PBS containing PMSF (5 mM), EDTA (5 mM), and DTT (5 mM). BAL fluid was separated into cell-free and cell fractions via brief centrifugation prior to any analyses being performed. The cell-free supernatants were analyzed for the presence of mucin via an ELISA method using anti-mucin antibodies shown to react with mouse mucin. Specifically, a mouse anti-MUC5AC antibody that recognizes the carbohydrate portion of secreted mucin was used in these assays. Data generated from each BAL sample were normalized to total protein as determined by Bradford assay. Mucin content was expressed as the value obtained with the anti-mucin antibody minus that obtained with the non-immune control antibody. All ELISA data were statistically examined using a one-way ANOVA.

[3] = Qualitative solubility of test peptides in 0.5 N saline; assay type: physicochemical; conditions: pH 6.5, 20° C. (table title)
Outline: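 Weighed peptide (1 to 5 mg) titrated with 25 μL aliquots of 0.5 N saline, pH 6.5, at 25° C until dissolution judged visually. Solubility calculated from volume needed; complete dissolution in first aliquot reported as greater than, non-dissolution as less than, the calculated value.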

[4] = Solubility in sodium acetate, pH 7; assay type: physicochemical; conditions: 120 min sodium acetate, pH 7 (so in the source)
[5] = system: HBE1 cells; assay: PMA-induced mucin hypersecretion in human bronchial epithelial cells (air/liquid interface, MUC5A ELISA); assay type: cell-based; conditions: for Block of PMA-induced increase in mucin secretion: pretreatment with 25 μM peptide
Description: HBE1 is a papilloma virus-transformed human bronchial epithelial cell line capable of mucin secretion when cultured in air/liquid interface. HBE1 cells were cultured in the air/liquid interface as described previously (Li et al, J. Biol. Chem., volume 276, pp 40982-40990, 2001). Briefly, HBE1 cells were cultured in air/liquid interface by seeding an appropriate number of cells in 12-well Transwell clear culture inserts (Costar, Cambridge, Mass.) that were thinly coated with rat tail collagen, type I (Collaborative Biomedical, Bedford, Mass.). Cells were initially cultured submerged in medium in a humidified 95% air, 5% CO2 environment for 5-7 days until nearly confluent. At that time, the air/liquid interface was created by removing the apical medium and feeding cells basalaterally. Medium was renewed daily thereafter. Cells were cultured for an additional 14 days to allow full differentiation. The accumulated mucin at the apical surface of the cells was removed by washing with phosphate-buffered saline, pH 7.2. To collect the baseline mucin secretion, cells were incubated for 30 min with medium alone and secreted mucin in the apical medium was collected, and quantitated by ELISA. To determine the mucin hypersecretion induced by a mucin secretagogue, cells were exposed to medium containing 0.5 μM phorbol myristate acetate, (PMA) for 30 min. and mucin was collected and quantitated by ELISA. […] Six wells were used for each test peptides and for each control. Secreted mucin in the apical medium was collected and quantitated by sandwich ELISA method using alkaline phosphatase-conjugated mucin (MUC5A) specific antibody (Zymed Laboratories, San Francisco, Calif.).

[6] = system: methacholine-induced mucin hypersecretion; assay: Methacholine-induced mucin hypersecretion in ovalbumin-sensitized mouse model of asthma, BAL mucin ELISA (Balb/C mice); assay type: in vivo; conditions: for Mucin Secretion % control: peptides at 100 μM; for Mucin Secretion % of control: Table IV, peptide 100 μM
Outline: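 BP2 or Balb/C mice immunized s.c. twice weekly with 1 μg ovalbumin, aerosol ovalbumin challenge after 14 days, then aerosolized methacholine 72 h later. Anti-MUC5AC ELISA on cell-free BAL, minus non-immune antibody signal, normalized to Bradford protein; 6 mice per group.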

[7] = system: methacholine-induced mucin hypersecretion; assay: Duration of action of test peptides in a murine model of asthma; assay type: in vivo; conditions: Balb/C mice
Description: as §1, §2
Experiments were designed to determine the duration of action of test peptides in a murine model of asthma. As described in Method 1A, Balb/C mice were immunized with ovalbumin. After 14 days, the animals were challenged with aerosolized ovalbumin. After 72 hours the secretagogue, methacholine was delivered by aerosolization. The test peptides ([…] of 100 µM solution) were administered by intratracheal route 30 min, 60 min, or 120 min prior to methacholine challenge. The animals were sacrificed and BAL performed for analysis of secreted mucin The results of this experiment are given in Table VI.

[8] = Table II, 50 μL intratracheal 15 min before methacholine
[9] = peptide intratracheal 30 min prior to methacholine challenge
[10] = peptide intratracheal 60 min prior to methacholine challenge
[11] = peptide intratracheal 120 min prior to methacholine challenge

solubility [3] | Solubility in sodium acetate [4] | SMILES | Inhibition of mucus secretion [1] | Mucin Secretion % of control ([2]; peptide 10 μM) | Mucin Secretion % of control ([2]; peptide 100 μM) | Mucin Secretion % of control ([2]; peptide 140 μM) | Block of PMA-induced increase in mucin secretion ([5]; then 0.5 μM PMA) | Mucin Secretion % control [6, 8] | Mucin Secretion % control ([6]; Table III) | Mucin Secretion % of control [6] | Duration of action, mucin secretion (% of Control) [7, 9] | Duration of action, mucin secretion (% of Control) [7, 10] | Duration of action, mucin secretion (% of Control) [7, 11] | Mucin secretion level below the unstimulated medium control ([5]; 25 μM peptide, then 0.5 μM PMA) | Inhibitory effect on PMA-induced increase in mucin secretion ([5]; peptide concentration not given, 0.5 μM PMA)
< 5 mg/mL | freely soluble | CCCCCCCCCCCCCC(=O)NCC(=O)N[C@@H](C)C(=O)N[C@@H](CCC(N)=O)C(=O)N[C@@H](Cc1ccccc1)C(=O)N[C@@H](CO)C(=O)N[C@@H](CCCCN)C(=O)N[C@H](C(=O)N[C@@H](C)C(=O)N[C@@H](C)C(=O)N[C@@H](CCCCN)C(=O)NCC(=O)N[C@@H](CCC(=O)O)C(=O)N[C@@H](C)C(=O)N[C@@H](C)C(=O)N[C@@H](C)C(=O)N[C@@H](CCC(=O)O)C(=O)N[C@@H](CCCNC(=N)N)C(=O)N1CCC[C@H]1C(=O)NCC(=O)N[C@@H](CCC(=O)O)C(=O)N[C@@H](C)C(=O)N[C@@H](C)C(=O)N[C@H](C(=O)N[C@@H](C)C(=O)O)C(C)C)[C@@H](C)O [myr-peptide 1, reference compound] (Myristoyl-GAQFSKTAAKGEAAAERPGEAAVA-OH) | ~75% | 35 % of Control | 12 % of Control | 8 % of Control | 100% | 33.8 % control | 40 % control | 29** % of control | 7 % of Control | 44 % of Control | 50 % of Control | – | –
> 15 mg/mL | freely soluble | CCCCCCCCCCCCCC(=O)NCC(=O)N[C@H](C(=O)N[C@@H](C)C(=O)N1CCC[C@H]1C(=O)N[C@@H](C)C(=O)N[C@@H](C)C(=O)N[C@@H](CCC(=O)O)C(=O)NCC(=O)N[C@@H](C)C(=O)NCC(=O)N[C@@H](C)C(=O)N[C@@H](CCC(=O)O)C(=O)N[C@H](C(=O)N[C@@H](CCCCN)C(=O)N[C@@H](CCCNC(=N)N)C(=O)N[C@@H](C)C(=O)N[C@@H](CO)C(=O)N[C@@H](C)C(=O)N[C@@H](CCC(=O)O)C(=O)N[C@@H](C)C(=O)N[C@@H](CCCCN)C(=O)N[C@@H](CCC(N)=O)C(=O)N[C@@H](C)C(=O)N[C@@H](Cc1ccccc1)C(=O)O)C(C)C)[C@@H](C)O [myr-peptide 232, reference compound] (Myristoyl-GTAPAAEGAGAEVKRASAEAKQAF-OH) | did not have any effect | – | 100 % of Control | 100 % of Control | – | 96 % control | 81** % control | 108 % of control | 100 % of Control | 100 % of Control | 100 % of Control | – | –
> 200 mg/mL | – | CC(=O)N[C@@H](C)C(=O)N[C@@H](CCCCN)C(=O)NCC(=O)N[C@@H](CCC(=O)O)C(=O)O [Ac-peptide 219] (Ac-AKGE-OH) | – | – | – | – | 100% | – | – | – | – | – | – | 20% | –

SMILES | solubility [3] | Solubility in sodium acetate [4] | Inhibition of mucus secretion [1] | Mucin Secretion % of control ([2]; peptide 10 μM) | Mucin Secretion % of control ([2]; peptide 100 μM) | Mucin Secretion % of control ([2]; peptide 140 μM) | Block of PMA-induced increase in mucin secretion ([5]; then 0.5 μM PMA) | Mucin Secretion % control [6, 8] | Mucin Secretion % control ([6]; Table III) | Mucin Secretion % of control [6] | Duration of action, mucin secretion (% of Control) [7, 9] | Duration of action, mucin secretion (% of Control) [7, 10] | Duration of action, mucin secretion (% of Control) [7, 11] | Mucin secretion level below the unstimulated medium control ([5]; 25 μM peptide, then 0.5 μM PMA) | Inhibitory effect on PMA-induced increase in mucin secretion ([5]; peptide concentration not given, 0.5 μM PMA)
CC(=O)N[C@@H](C)C(=O)N[C@@H](C)C(=O)NCC(=O)N[C@@H](CCC(=O)O)C(=O)O [Ac-peptide 251] (Ac-AAGE-OH) | > 200 mg/mL | – | – | – | – | – | – | – | – | – | – | – | – | – | 6%
